Earlier results as cited in paper PMC2796837 (Journal of biological inorganic chemistry : JBIC : a …, 2008).
Where two headings read alike, the source gives them in different places.

Legend:
[1] = I = 1.0 M KCl, 25°C
[2] = I = 1.0 M KCl, 25°C; remark: listed apart in the source
[3] = I = 1.0 M KCl, 25°C; remark: listed apart in the source
[4] = I = 1.0 M KCl, 25°C; remark: listed apart in the source
[5] = I = 1.0 M KCl, 25°C; remark: listed apart in the source
[6] = Ce^3+ complex
[7] = I = 1.0 M KCl, 25°C; remark: listed apart in the source
[8] = I = 1.0 M KCl, 25°C; remark: listed apart in the source
[9] = I = 1.0 M KCl, 25°C; remark: listed apart in the source
[10] = I = 1.0 M KCl, 25°C; remark: listed apart in the source
[11] = I = 1.0 M KCl, 25°C; remark: listed apart in the source
[12] = I = 1.0 M KCl, 25°C; remark: listed apart in the source
[13] = I = 1.0 M and 25 °C

Compound: O=C(O)CN1CCN(CC(=O)O)CCN(CC(=O)O)CCN(CC(=O)O)CC1 [DOTA]
- log KML, Yb^3+ [1]: 25.0
- log KML, Eu^3+ [2]: 23.5
- log KZnL [3]: 18.17
- log KML, Dy^3+ [4]: 24.8
- log KML, Nd^3+ [5]: 23.0
- k1 (proton assisted dissociation rate constant) [6]: 0.0008 M⁻¹ s⁻¹
- log KML, Lu^3+ [7]: 25.4
- log KMgL [8]: 11.15
- log KCaL [9]: 16.37
- log KCuL [10]: 22.72
- log KML, Ce^3+ [11]: 23.4
- log K1^H [12]: 12.60
- log K2^H [12]: 9.70
- log K3^H [12]: 4.50
- log K4^H [12]: 4.14
- log K5^H [12]: 2.32

Compound: O=C([O-])CN1CCN(CC(=O)[O-])CCN(C(CO)C(O)CO)CCN(CC(=O)[O-])CC1.[Gd+3] (centres unmarked) [GdDO3A-butrol]
- LD50: 23 mmolkg^−1

Compound: CC(O)CN1CCN(CC(=O)[O-])CCN(CC(=O)[O-])CCN(CC(=O)[O-])CC1.[Gd+3] (centres unmarked) [GdHP-DO3A]
- LD50: 12 mmolkg^−1

Compound: CN1CCNCC1 [N-methylpiperazine]
- log K1^H [13]: 4.83

Compound: C1CNCCN1 [piperazine]
- log K1^H [13]: 6.04
